Source: ChEMBL document CHEMBL1201862, “PubChem BioAssay data set” (2004)
Activity calls are given as the source filed them.

Legend:
[1] = target: T1, Tyrosine-protein phosphatase non-receptor type 22 (Homo sapiens, UniProt Q9Y2R2); assay type: functional
T1 sequence (Q9Y2R2 whole entry): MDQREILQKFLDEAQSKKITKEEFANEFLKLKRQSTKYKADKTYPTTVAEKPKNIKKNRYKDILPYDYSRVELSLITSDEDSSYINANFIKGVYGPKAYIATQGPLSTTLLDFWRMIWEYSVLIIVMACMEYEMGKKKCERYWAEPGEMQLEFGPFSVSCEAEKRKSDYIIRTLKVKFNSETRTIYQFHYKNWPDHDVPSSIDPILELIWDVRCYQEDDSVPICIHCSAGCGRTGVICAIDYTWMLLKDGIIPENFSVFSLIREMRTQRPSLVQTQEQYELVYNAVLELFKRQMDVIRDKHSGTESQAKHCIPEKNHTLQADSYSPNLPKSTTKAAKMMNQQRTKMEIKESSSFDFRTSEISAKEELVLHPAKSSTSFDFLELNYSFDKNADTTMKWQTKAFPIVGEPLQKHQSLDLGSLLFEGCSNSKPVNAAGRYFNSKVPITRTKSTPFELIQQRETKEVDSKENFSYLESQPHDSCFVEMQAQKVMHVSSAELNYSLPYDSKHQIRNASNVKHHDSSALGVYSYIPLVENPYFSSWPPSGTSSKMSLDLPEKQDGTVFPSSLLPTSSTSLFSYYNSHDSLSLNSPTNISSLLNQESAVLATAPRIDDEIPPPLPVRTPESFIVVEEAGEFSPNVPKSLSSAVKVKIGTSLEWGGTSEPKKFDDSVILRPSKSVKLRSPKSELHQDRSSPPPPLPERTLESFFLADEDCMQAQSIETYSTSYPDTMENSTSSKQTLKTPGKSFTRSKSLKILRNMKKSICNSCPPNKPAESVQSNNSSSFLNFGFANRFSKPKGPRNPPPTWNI

[2] = target: T2, Tyrosine-protein phosphatase non-receptor type 7 (Homo sapiens, UniProt P35236); assay type: functional
T2 sequence (P35236 whole entry): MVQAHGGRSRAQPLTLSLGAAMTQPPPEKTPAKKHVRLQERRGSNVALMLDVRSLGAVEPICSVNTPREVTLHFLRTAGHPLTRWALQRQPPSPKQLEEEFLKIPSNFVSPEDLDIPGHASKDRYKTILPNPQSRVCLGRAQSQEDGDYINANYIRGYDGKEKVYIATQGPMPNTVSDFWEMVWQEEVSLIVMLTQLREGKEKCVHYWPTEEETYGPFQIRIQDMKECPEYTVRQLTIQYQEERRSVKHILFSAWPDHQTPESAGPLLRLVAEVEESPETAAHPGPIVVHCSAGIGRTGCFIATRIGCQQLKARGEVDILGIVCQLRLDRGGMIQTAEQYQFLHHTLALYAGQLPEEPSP

[3] = Luminescence Cell-Based Dose Confirmation HTS to Identify Inhibitors of Platelet Dense Granule Release. [Related pubchem assays: 1663 (Primary HTS), 1678 (Summary of Project)]; assay type: functional
[4] = target: T1, Tyrosine-protein phosphatase non-receptor type 22; assay type: functional; remark: listed apart in the source
[5] = target: Luciferin 4-monooxygenase (Photinus pyralis, UniProt P08659); assay: firefly luciferase enzyme inhibitors, dose response, biochemical, luminescence (AID 1891)
Sequence of Luciferin 4-monooxygenase (P08659 whole entry): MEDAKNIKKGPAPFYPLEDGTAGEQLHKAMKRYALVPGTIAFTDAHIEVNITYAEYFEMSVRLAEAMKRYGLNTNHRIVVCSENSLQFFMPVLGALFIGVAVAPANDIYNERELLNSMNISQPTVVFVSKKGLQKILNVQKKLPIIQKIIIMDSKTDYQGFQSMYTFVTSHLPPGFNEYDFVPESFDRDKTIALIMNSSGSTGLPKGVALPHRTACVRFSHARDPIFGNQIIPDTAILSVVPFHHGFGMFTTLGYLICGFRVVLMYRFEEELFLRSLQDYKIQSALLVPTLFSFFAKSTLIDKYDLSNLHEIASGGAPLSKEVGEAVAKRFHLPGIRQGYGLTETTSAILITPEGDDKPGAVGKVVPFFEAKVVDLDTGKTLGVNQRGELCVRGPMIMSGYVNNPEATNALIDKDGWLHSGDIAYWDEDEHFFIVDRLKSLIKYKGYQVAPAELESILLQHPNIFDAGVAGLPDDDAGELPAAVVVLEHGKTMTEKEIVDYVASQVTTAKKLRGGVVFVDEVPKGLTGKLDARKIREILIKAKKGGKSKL

[6] = target: T3, E3 ubiquitin-protein ligase XIAP (Homo sapiens, UniProt P98170); assay: Counter Screen using XIAP-Bir3 for Chemical Antagonists of Bir1/2 domains of IAP-family anti-apoptotic proteins. [Related pubchem assays (depositor defined):AID1018, AID1449, AID1514, AID1638, AID1749, AID1750, AID488957, AID488963]
T3 sequence (P98170 whole entry): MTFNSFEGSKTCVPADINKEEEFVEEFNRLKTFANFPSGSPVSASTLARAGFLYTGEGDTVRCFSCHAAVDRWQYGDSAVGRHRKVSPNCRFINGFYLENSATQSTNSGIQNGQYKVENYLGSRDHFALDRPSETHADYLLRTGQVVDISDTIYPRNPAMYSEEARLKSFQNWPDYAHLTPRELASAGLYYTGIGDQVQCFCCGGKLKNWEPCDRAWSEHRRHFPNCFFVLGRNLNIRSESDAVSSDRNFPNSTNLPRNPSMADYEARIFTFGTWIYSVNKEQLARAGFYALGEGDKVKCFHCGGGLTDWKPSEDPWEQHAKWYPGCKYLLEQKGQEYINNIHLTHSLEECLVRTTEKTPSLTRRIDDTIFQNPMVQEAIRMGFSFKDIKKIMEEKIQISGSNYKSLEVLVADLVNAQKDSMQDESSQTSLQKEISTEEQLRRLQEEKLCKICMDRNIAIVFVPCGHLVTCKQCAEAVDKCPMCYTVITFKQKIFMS

[7] = target: T3, E3 ubiquitin-protein ligase XIAP; assay: XIAP antagonists, biochemical, IAP family, fluorescence polarization (AID 1018); assay type: functional
[8] = Shn3 3'UTR reporter inhibitors, dose response, cell-based, Clone20 osteoblasts, firefly luciferase, cherry-picked (AID 624132); assay type: functional;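 also: firefly luciferase luminescence from reporter carrying the Shn3 3'UTR in osteoblasts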
[9] = control 3'UTR Renilla luciferase suppression, dose response, counter-screen for Shn3 inhibitor project, cell-based, Clone20-Shn3RL, cherry-picked (AID 624133); assay type: functional
Jurkat = assay: antigen receptor-induced NF-kB inhibitors, dose response, Jurkat, luciferase reporter, luminescence, B- and T-cell (AID 489004); assay type: functional, cell-based; conditions: Homo sapiens;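 also: NF-kB luciferase reporter Jurkat cells stimulated with PMA plus ionomycin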
[10] = inhibitors of intracellular T. cruzi replication, confirmation, NIH3T3 host cells, beta-gal luminescence (AID 2044); assay type: functional, cell-based;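 also: intracellular parasites grown in NIH/3T3 mouse fibroblasts as host cells; luminescent beta-galactosidase reporter signal from transgenic T. cruzi replicating inside host cells; inhibitors lower the luminescence signal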
INS1 = assay: beta cell apoptosis inhibitors, cytokine rescue, dose response, luminescence, retest (AID 449756); assay type: functional, cell-based; conditions: Rattus norvegicus;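 also: cell death triggered by IL-1 beta plus TNF-alpha plus IFN-gamma mixture; protective hits raise ATP signal compared with cytokine alone wells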
[11] = Luminescence Cell-Based Dose Retest to Confirm Inhibitors of Cancer Stem Cells. [Related pubchem assays (depositor defined):AID2717, AID2721]; assay type: functional; conditions: Homo sapiens
[12] = HepG2 cell cytotoxicity, dose response, cytotoxicity control for Shn3 inhibitor project, CellTiter-Glo, cherry-picked (AID 624134); assay type: functional, cell-based
[13] = cytotoxicity in HEK-293T NF-kB-Luc cells, dose response, cytotoxicity control for B/T-cell NF-kB inhibitor project, cell-based, uHTS hits (AID 489019); assay type: functional;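 also: IC50 reflects cytotoxicity as loss of cell viability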
[14] = cytotoxicity toward NIH3T3 fibroblasts, dose response, counter-screen, cell-based, ATP luminescence, mouse fibroblasts (AID 2010); assay type: functional;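 also: cells exposed to compound for about 90 hours before reading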
[15] = target: T4, Orexin/Hypocretin receptor type 1 (Homo sapiens, UniProt O43613); assay: Homogeneous Time Resolved Fluorescence (HTRF)-based cell-based high throughput dose response assay for antagonists of the orexin 1 receptor (OX1R; HCRTR1). [Related pubchem assays (depositor defined):AID434989, AID435008, AID463079, AID485270, AID492963, AID492964, AID492965, AID493232, AID504717, AID504718]; assay type: functional
T4 sequence (O43613 whole entry): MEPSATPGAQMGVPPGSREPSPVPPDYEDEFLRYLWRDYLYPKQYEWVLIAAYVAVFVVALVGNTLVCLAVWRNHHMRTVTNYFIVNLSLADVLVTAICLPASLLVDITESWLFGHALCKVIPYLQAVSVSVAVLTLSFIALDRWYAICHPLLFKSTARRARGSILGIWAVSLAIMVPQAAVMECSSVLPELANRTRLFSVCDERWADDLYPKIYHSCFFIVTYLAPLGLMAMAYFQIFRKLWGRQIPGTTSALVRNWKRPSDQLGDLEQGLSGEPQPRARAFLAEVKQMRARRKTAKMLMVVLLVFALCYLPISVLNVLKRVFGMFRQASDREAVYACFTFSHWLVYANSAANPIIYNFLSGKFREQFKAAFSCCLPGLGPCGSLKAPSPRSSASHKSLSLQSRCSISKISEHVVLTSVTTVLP

[16] = (§1) Counterscreen for antagonists of the orexin 1 receptor (OX1R; HCRTR1): Fluorescence-based cell-based high throughput dose response assay to identify antagonists of the parental CHO cell line. [Related pubchem assays (depositor defined):AID434989, AID435008, AID463079, AID485270, AID492963, AID492964, AID492965, AID493232, AID504699, AID504701]; assay type: functional
CHO-K1 = assay: as §1, with “Homogeneous time resolved fluorescence (HTRF)-based” for “Fluorescence-based”, “cell-based” for “cell-based high throughput”, “CHO-K1” for “CHO”; assay type: functional; conditions: Cricetulus griseus;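 also: potency for inhibition of ATP-stimulated IP1 production as antagonists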
[17] = target: T4, Orexin/Hypocretin receptor type 1; assay: Fluorescence-based cell-based high throughput dose response assay for antagonists of the orexin 1 receptor (OX1R; HCRTR1). [Related pubchem assays (depositor defined):AID434989, AID435008, AID463079, AID485270, AID492963, AID492964, AID492965, AID493232, AID504717, AID504718]; assay type: functional

In the case of `COC(=O)C(C(=O)NCC1CCCO1)C1CCCCCC1` (stereo not drawn), the IC50 [1] is reported as > 79.4 µM (inactive), the IC50 [2] is reported as > 79.4 µM (inactive) and the EC50 [3] is reported as > 112 µM (not active). For the same compound, the IC50 [4] was > 79.4 µM (inactive) and the EC50 [5] was > 112 µM (not active).
With `Cc1cc(Cl)ccc1OCC(=O)OCC(=O)Nc1ccc(F)c([N+](=O)[O-])c1` the IC50 [1] was > 79.4 µM (inactive), the IC50 [2] was > 79.4 µM (inactive) and the IC50 [4] was > 79.4 µM (inactive).
For `Cc1ccc(C(=O)N/N=C\c2ccccc2[N+](=O)[O-])cn1`, the IC50 [6] was > 100 µM (inactive) and the IC50 [7] was > 100 µM (not active).
In the case of `Cc1sc2ncnc(N3CCN(CCOc4ccc(Cl)cc4)CC3)c2c1C`, the AC50 [8] is reported as 1.35 µM (active), the AC50 [9] is reported as 6.27 µM (active) and the IC50 (Jurkat) is reported as 64.1 µM (inactive). The EC50 [10] was 2.29 µM (active), the AC50 (INS1) was 2.74 µM (active) and the AC50 [11] was 5.5 µM (active). For the same compound, the AC50 [12] was 3.27 µM (active), the IC50 [13] was > 80 µM (inactive) and the EC50 [14] was > 30 µM (not active).
With `COC(=O)C(C(C)=O)C1=C/C(=N\S(=O)(=O)c2ccc(C)cc2)c2ccccc2C1=O` (stereo not drawn) the IC50 [15] was 0.414 µM (active), the IC50 [16] was > 49.8 µM (inactive) and the IC50 (CHO-K1) was 53.7 µM (inactive). The IC50 [17] was 2.83 µM (active).
